A short description of series [1]: Plasma and tumor metabolism by LC-MS and LC-MS/MS. Format: in vivo, NSG male mice. Particulars: 3 h after administration; for in vivo metabolism of administered drug (LC-MS): tumor and plasma; for in vivo metabolism of administered drug (LC-MS) / concentration of released ZR2002 in treated tumors relative to ZR2002-treated tumors: 80 mg/kg oral; for concentration of released ZR2002 in treated tumors relative to ZR2002-treated tumors: tumor, N = 4. The protocol: In order to study the drug pharmacokinetics, 1 last dose (the 11th dose) was administered 3 h prior to sacrifice and after a break of 5 days from the previous drug administration.
At the end of the study, the mice were sacrificed, and the plasma and tumors were collected. The plasma was stored at −80 °C, and the tumor tissues were transversely cut into 2 parts: 1 was immediately frozen in liquid nitrogen and stored at −80 °C for Western blots and LC-MS analysis; the other was fixed in 4% paraformaldehyde and used for histology.
Individual stock solutions of ZR2002 and Nitro-RB10 (IS) were prepared in DMSO at 10 mg/mL and, after, in MeOH at a concentration of 100 μg/mL. Intermediate dilutions were prepared using ACN:water (35:65, v:v). All stock and working solutions were stored at −20 °C and brought to room temperature before use.
The dynamic range for the calibration curve ranged from 0.4 to 150 ng/mL, including 0.4, 1, 5, 10, 50, 80, 100 and 150 ng/mL in plasma and tumor matrix. These standards were prepared by spiking an appropriate volume of a standard spiking solution into the blank extracted plasma or tumor and vortexing. A total of 3 levels of QC samples were run during the analysis, including a low QC of 1 ng/mL, a mid QC of 10 ng/mL and a high QC of 100 ng/mL. These QC samples were prepared by spiking an appropriate volume of the spiking solution into the matrix blank. An appropriate volume of the IS spiking solution was then spiked into the calibration standards and QC samples to generate a final IS concentration of 15 ng/mL in the matrix. All samples were vortexed gently, completing the sample preparation process.
An amount of 50 μL of each plasma sample was deproteinized with 200 µL of cold ACN. The samples were mixed for 10 s, shaken automatically for 10 min and centrifuged for 10 min at 15,000 rpm (21,130 rcf) at 4 °C. After centrifugation, the supernatants were loaded into Captiva-Enhanced Matrix Removal (EMR)-Lipid cartridges (1.0 mL; 40 mg; Agilent, Santa Clara, CA, USA) and settled for 5 min. The supernatants were eluted by applying a positive pressure (2 psi for 2 min) using a positive pressure manifold (PPM 96 processor, Agilent Techn.). The cartridges were washed with ACN:water (8:2, v:v) 100 μL, at 2–4 psi for 2 min, followed by a 1-min period of high pressure (6–9 psi) to drain the cartridges. The elutes were transferred to new tubes and dried under vacuum using a Centrivap sample concentrator (Centrivap Complete^TM, Labconco Corporation, Kansas City, MO, USA) at room temperature. The dried samples were stored at −20 °C before LC-MS analysis. On the day of analysis, the samples were reconstituted in 100 µL of MeOH, vortexed for 10 s, sonicated for 5 min (sonic bath, Symphony, VWR International, Radnor, PA, USA) and centrifuged for 5 min at 15,000 rpm. The supernatants were diluted 60 times in 35% ACN, and an appropriate volume of the IS spiking solution was then spiked into the samples to generate a final IS concentration of 15 ng/mL. At the end of the process, all samples were diluted 120 times. These final solutions were transferred to autosampler vials (350 µL, Thermo Fisher Scientific, Waltham, MA, USA), and 10 µL of each was injected into the LC-MS system.
A weighted piece of tumor was crushed in a mortar with liquid nitrogen. To the tumor powder, 150 μL of water was added before deproteinizing the mixture with 600 µL of cold ACN. The samples were mixed for 10s, sonicated with ice in a sonication bath for 30 min to 1 h (Sonicate bath, VWR, International, Radnor, PA, USA) and centrifuged for 10 min at 15,000 rpm (21,130 rcf) at 4 °C (Centrifuge 5424 R, Eppendorf). After centrifugation, the supernatants were loaded into Captiva-Enhanced Matrix Removal (EMR)-Lipid cartridges (1.0 mL; 40 mg; Agilent) and settled for 5 min. The supernatants were eluted by applying a positive pressure (2 psi for 2 min) using a positive pressure manifold (PPM 96 processor, Agilent Techn.). […]

In series [2] the test system is Saos-2 osteosarcoma xenograft. Put plainly: 18F-FDG PET/CT imaging of tumors. Format: in vivo, NSG male mice. Particulars: day 22, 80 mg/kg oral; for total lesion glycolysis (TLG): FDG-PET. The protocol: All PET/CT experiments were performed using nanoScan PET/CT for small animals (Mediso Medical Imaging Systems, Budapest, Hungary). The radiotracer 2′-deoxy-2′-[^18F]fluoro-D-glucose (^18F-FDG) was inoculated via 1 bolus injection in the tail vein (5.3 MBq in 100 µL). All animals were starved from the night before the experiment. The mice were kept awake for 45 min before the scans and weighed, and glycemia was measured in blood drawn from the caudal artery. Afterward, each mouse was placed in the scanner, with the […] at the center of the field of view. Each PET/CT session consisted of a 30 min PET emission scan followed by a 10 min CT transmission scan. The PET/CT scans were conducted under anesthesia (isoflurane 2%; medical air (0.6 L/min)) delivered via a nose cone. Temperature and heart rate were monitored throughout the procedure using the Mediso system. Images were reconstructed using expectation maximization (EM) and ordered subset expectation maximization (OSEM), normalized, and corrected for scatter, dead time and decay. The CT volume-of-interest (VOI) was drawn manually on the CT and PET co-registered images. ^18F-FDG accumulation was quantified as the mean standardized uptake value (SUV) between 20 and 30 min post-injection in a 3D volume-of-interest (VOI), which was named the metabolic volume (MV), delineated semi-automatically with iso-contours at a 40% threshold of the maximal SUV [30] in the tumor on PET/CT fusion slices using the PMOD software package v3.6 (PMOD Technologies Ltd., Zürich, Switzerland). In addition, another tumor volume-based parameter, called total lesion glycolysis (TLG), was calculated according to the product between the MV and the mean SUV. Furthermore, at the end of the imaging sessions, the tumors were resected and processed for ex vivo analysis.

Results on three molecules are retold here after publication PMC10046901, “Molecular Analysis of the Superior Efficacy of a Dual Epidermal Growth Factor Receptor (EGFR)-DNA-Targeting Combi-Molecule in Comparison with Its Putative Prodrugs 6-Mono-Alkylamino- and 6,6-Dialkylaminoquinazoline in a Human Osteosarcoma Xenograft Model” (Cells, 2023).

Turning to `ClCCN(CCCl)c1ccc2ncnc(Nc3cccc(Br)c3)c2c1` [JS61], in series [1], the “in vivo metabolism of administered drug (LC-MS)” value (“in vivo metabolism” below) is recorded as “remained largely intact” and the “concentration of released ZR2002 in treated tumors relative to ZR2002-treated tumors” value was “five times lower”.
Turning to `CN(CCCl)c1ccc2ncnc(Nc3cccc(Br)c3)c2c1` [JS84], in series [1], the “in vivo metabolism” value was “partially intact and largely converted into RB10-Methyl (peak 7), RB10 (1) and RB10-N-Acetyl (2)”; the “concentration of released ZR2002 in treated tumors relative to ZR2002-treated tumors” value was “five times lower”. The “concentrations of ZR2002 metabolite in treated tumors and plasma vs ZR2002-treated” value in series [1] (tumors and plasma) is given as “significantly lower”. In addition, in series [2], the “CT tumor volume vs vehicle” value was “not statistically different”; the “metabolic volume (MV) vs vehicle, FDG-PET” value is on record as “not statistically different”; the “total lesion glycolysis (TLG)” value is “reduction in TLG”.
For the molecule `ClCCNc1ccc2ncnc(Nc3cccc(Br)c3)c2c1` [ZR2002], in series [1], the “in vivo metabolism” value is “partially metabolized into its deschloroethyl metabolite “RB10” (peak 1) and RB10-N-acetyl (peak 2)”. In series [2], the “CT tumor volume vs vehicle” value is “significant reduction”; the “metabolic volume (MV) vs vehicle, FDG-PET” value is reported as “significant reduction”; the “total lesion glycolysis (TLG)” value was “reduction in TLG”.
